Source: patent US12551533B2, “Intranasal neuropeptides for use in stress-related impairments” (New York Medical College, priority 2019, dated 2026)
Entries after “also recorded” stand apart in the source; their conditions may differ.

How the values were obtained:
[1] = test system: Single Prolonged Stress (SPS) model of PTSD; assay: Forced Swim Test (FST) 12 days after SPS stressors, early intervention with intranasal peptide; type: in vivo; conditions: intranasal 150 μg/rat immediately after SPS, vs SPS/V
Protocol: (§1) After 7 days, the animals were tested on the elevated plus maze (EPM) for 5 min for various features of anxiety and locomotion and 5 days later for depressive/despair symptoms on the Forced Swim Tet (FST).
The immobility time on the FST, which reflects depressive-lie behavior, despair or altered coping style was determined.
(§2) After a two week accommodation period rats were exposed to SPS stressors. […] Control unstressed rats were handled briefly and weighed on the same day. They were left undisturbed for a week and then tested for anxiety on Elevated Plus Maze (EPM) together with unstressed control rats. Five days later all the animals were tested for depresssive/dispair behavior by the Forced Swim Test (FST).

[2] = test system: Single Prolonged Stress (SPS) model of PTSD; assay: EPM after intranasal treatment given 2 weeks after SPS (reversal of manifested symptoms); type: in vivo; conditions: intranasal 300 μg/rat given 2 weeks after SPS; EPM four days later; vs SPS/V
Excerpt: FIG. 9A. Scheme of the experiment; FIG. 9B. Duration in the closed arms, an indication of anxiety; FIG. 9C. Anxiety index. *p<0.05, ***p<0.001.

[3] = test system: Single Prolonged Stress (SPS) model of PTSD; assay: Elevated plus maze (EPM) two weeks after SPS stressors, early intervention with intranasal peptide; type: in vivo; conditions: intranasal NPY 200 μg or D-H 150 μg per rat immediately after SPS
Protocol: (§3) FIG. 6 depicts a diagram of the experimental procedure (FIGS. 7-8). […] After two weeks the animals were tested on the elevated plus maze (EPM) for 5 min and 7 days later for social interaction (SI).
(§4) The experimental design was as depicted in FIG. 6. […] After two weeks they were tested on the elevated plus maze (EPM) for 5 min and 7 days later for social interaction (SI).

[4] = test system: Single Prolonged Stress (SPS) model of PTSD; assay: Elevated plus maze (EPM) one week after SPS stressors, early intervention with intranasal peptide; type: in vivo, rat
Protocol: as §1
Based on the performance on the EPM the anxiety index was calculated for each rat. […] (FIG. 2B)
as §2
Based on the performance on the EPM the anxiety index was calculated for each rat. The anxiety index=1−[(time spent in open arm/total time on the maze)/2+(number of entries to the open arms/total exploration on the maze)/2] and is shown in FIG. 2. […] Each point represents the values for an individual animal.

[5] = test system: Single Prolonged Stress (SPS) model of PTSD; assay: Social interaction test with juvenile rat, three weeks after SPS stressors; type: in vivo; conditions: intranasal NPY 200 μg or D-H 150 μg per rat immediately after SPS; SI 7 days after the EPM
Protocol: as §3, §4

[6] = test system: SPS elicited development of depressive symptoms; conditions: intranasal infusion after traumatic stress; cited from earlier work
[7] = intranasal 150 μg/rat immediately after SPS, one week after SPS
[8] = intranasal 150 μg/rat immediately after SPS, one week after SPS, listed as [D-^26His]NPY

Substance | immobility time in the Forced Swim Test ([1]; listed as D-H) | immobility time in the Forced Swim Test ([1]; listed as DH) | duration in the closed arms of the EPM [2] | entries and duration in the open arms of the EPM [3] | distance travelled on the EPM (locomotion) [4, 7] | duration of head dips on the EPM [4, 7] | frequency of head dips on the EPM [4, 7] | duration of head dips on the EPM [4, 8] | frequency of head dips on the EPM [4, 8] | interaction time on the social interaction test [5] | number of approaches on the social interaction test [5] | development of depressive-like symptoms after traumatic stress [6] | SPS elicited anxiety (anxiety index on the EPM, FIG. 2B) ([4]; intranasal, at a concentration which prevents SPS elicited depressive symptoms, seven days after SPS)
[D^26-His]NPY [[D^26His]NPY] | superior to NPY | reduced; also recorded: significantly more effective than NPY | less time in the closed arms | as effective as NPY | did not reduce the distance traveled | prevent the SPS triggered reduction; also recorded: more effective than NPY | prevent the SPS triggered reduction; also recorded: more effective than NPY | recovered | recovered | prevented | prevented |  | 
[Leu^31Pro^34]NPY [reference compound] |  |  |  |  |  |  |  |  |  |  |  | prevented development of depressive-like symptoms | did not reduce the SPS elicited anxiety; also recorded: ineffective
